Here are results for 2 molecules from patent US20140127316A1, “PROPOLIS AND CAFFEIC ACID PHENETHYL ESTER AND USES THEREOF” (NEW YORK UNIVERSITY, priority 2011, published 2014).

One series deals with p-Her2. As to the kind of experiment: Immunoblotting of phosphorylated Her2 in SKBR3 cells. Format: cell-based. Conditions: FIG. 5. From the text:
The HDAC inhibition seen in many BC cell lines by CAPE and propolis results in the decrease of EGFR over-expression and induction of ER in MDA-231 cells and decrease in ER and PR expression in MCF-7 cells (FIG. 3, 4). CAPE and Propolis cause a decrease in p-Her2, the activated form of Her 2 in SKBR3 cells, likely through intracellular signaling mechanisms (FIG. 5). […] To establish that the epigenetic effects of CAPE can be recapitulated in the natural product, we determined the concentration of CAPE in propolis by HPLC. […] Furthermore, the enhanced effects of HDAC inhibition with propolis, compared to CAPE alone, make it a suitable candidate for a clinical trial in any area of oncology.

Series [1] relates to histone deacetylases (HDAC). Description: Western blotting of acetylated histone H3 in lymphoma cell lines. Conditions: RIVA, LY 1, SU-DHL6 lymphoma cell lines, FIG. 9. Type of series: cell-based. From the text: FIG. 9 illustrates by Western Blotting CAPE induced hyperacetylation of Histone Proteins (Ac H3) in the indicated lymphoma cell lines (RIVA, LY 1, SU-DHL6).
(§1) These cell lines serve as in vitro breast cancer models. […] This typically signifies the inhibition of histone deacetylases and is used as a readout of this process via Western blotting. […] Further, FIGS. 3 and 4 provide additional evidence of the epigenetic changes that occur with CAPE and propolis resulting from HDAC inhibition. FIG. 3 depicts the downregulation of the estrogen receptor (ER) and progesterone receptor (PR) in MCF-7 cells and the downregulation of the epidermal growth factor receptor (EGFR) in MDA-231 cells (FIG. 4B). The re-expression of a previously silenced gene, (ER), a key function of HDAC inhibition, is depicted by the upregulation of the estrogen receptor in the ER-negative MDA-231 cell line (FIG. 4A). Furthermore, we have shown the HDAC inhibitor activity is not just restricted to breast cancer, but also in lymphoma (FIG. 9).

A further series has as its system MDA-231 xenografts. As to the kind of experiment: MDA-231 xenografts in nude mice. Format: in vivo. The procedure: (§2) Nude mice bearing MDA-231 xenografts were fed CAPE-containing diets and/or treated topically with CAPE, and tumors measured twice/week. bCSC (breast CSC) were isolated from MDA-231 cells and xenografts, and propagated as mammospheres. Cell growth was analyzed using MTT and cell cycle by flow cytometry. Apoptosis was determined by co-staining bCSC with Annexin V and propidium iodide.

The next series deals with VEGF. Conditions: MDA-231 cells; cited from earlier work.
The subject of series [2] is epidermal growth factor receptor (EGFR). Description: Immunoblotting of EGFR in MDA-231 cells. Conditions: FIG. 4B. Type of series: cell-based.
The subject of another series is endothelial cells. Conditions: cited from earlier work.
Series [3] deals with histone deacetylases (HDAC). As to the kind of experiment: Western blotting of acetylated histone proteins in breast cancer cell lines. Type of series: cell-based, human. Conditions: MDA-231 and MCF-7 cells, FIG. 2.
Excerpt: as §1

Series [4] deals with MDA-MB-231 (MDA-231) cells. As to the kind of experiment: Cell growth of MDA-231 cells (MTT). Type of series: cell-based, human. The procedure: as §2
The test system of series [5] is progesterone receptor (PR). As to the kind of experiment: Immunoblotting of PR in MCF-7 cells. Format: cell-based. Conditions: FIG. 3.
The test system of a further series is NF-κB. Conditions: cited from earlier work.
Series [6] deals with estrogen receptor (ER). Description: ER re-expression in MDA-231 cells by immunofluorescence and RT-PCR. Conditions: ER-negative MDA-231 cells, FIG. 4A. Format: cell-based.
The test system of series [7] is multidrug resistance 1 (mdr-1) gene. Description: Gene expression microarray analysis. Format: cell-based.
Series [8] deals with estrogen receptor (ER). Description: Immunoblotting of ER in MCF-7 cells. Conditions: FIG. 3. Format: cell-based.
The subject of series [9] is normal human mammary epithelial cells. As to the kind of experiment: Effect on normal mammary epithelial cells. Format: cell-based.
In series [10] the test system is bCSC isolated from MDA-231 cells. Description: Breast cancer stem cell (bCSC) clonal growth and self-renewal, mammospheres and soft agar. Type of series: cell-based, human. As for the experimental part:
as §2

Take `O=C(/C=C/c1ccc(O)c(O)c1)OCCc1ccccc1` [CAPE, caffeic acid phenethyl ester]: the p-Her2 expression result in the series on p-Her2 is on record as “decrease”. In addition, in series [1], the “Acetylation of histone proteins (Ac H3)” value is “hyperacetylation”. The “Growth of MDA-231 xenografts” value in the series with MDA-231 xenografts (dietary CAPE) was “significantly inhibited”. In addition, in the series with MDA-231 xenografts (subsequent topical treatment after dietary CAPE), the Tumor volume result was “further decreased”. The VEGF secretion result with VEGF was “decreases”. Besides, the EGFR expression result in [2] is listed as “downregulation”. For the same molecule, the Tubule formation result with endothelial cells is recorded as “inhibits”. For the same molecule, in series [3], the “HDAC inhibition (accumulation of acetylated histone proteins)” value is given as “HDAC inhibitors”. For the same molecule, the “Growth of MDA-231 cells” value in series [4] is reported as “inhibits growth”. For the same molecule, in [5], the PR expression entry was “downregulation”. Further, in the series on NF-κB, the NF-κB inhibition result is listed as “inhibits”. For the same molecule, in the series with estrogen receptor (ER) [6], the “ER expression (re-expression of silenced gene)” value is “upregulation”. Also, the mdr-1 gene expression entry in series [7] is recorded as “down-regulates”. The ER expression entry in the series on estrogen receptor (ER) [8] was “downregulation”. The “Effect on normal cells” value in series [9] is “innocuous”. The bCSC clonal growth result in series [10] was “decreased”. The “bCSC and progenitor self-renewal (growth in soft agar)” value in series [10] (pretreatment with 20 μM) is listed as “decreased growth in soft agar”.

Consider `Cc1[nH]c2ccccc2c1CCNCc1ccc(/C=C/C(=O)NO)cc1` [LBH 589, reference compound], for which, in the series on estrogen receptor (ER) [6], the “ER expression (re-expression of silenced gene)” value is listed as “re-expression”.
